The results in this text go back to patent publication US20090306133A1, “New Acetyl Coenzyme A Carboxylase (ACC) Inhibitors And Uses In Treatments Of Obesity And Diabetes Mellitus - 087” (ASTRAZENECA AB, priority 2007, published 2009).

For orientation: IC50 means the concentration at which inhibition is half-maximal.

For test [1], the target named is Human recombinant Acetyl-CoA Carboxylase 1 (ACC1) (Homo sapiens, UniProt Q13085). Briefly: Assay X: ACC1 inhibition, inorganic phosphate (malachite green). As to conditions: Assay X: 37° C., 1.5 h, 5 min pre-incubation. The format is biochemical. The method, boiled down: (§1)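 Human recombinant enzyme pre-incubated 5 min with compound before substrate addition; reaction run 1.5 h, then inorganic phosphate detected by malachite green absorbance at 660 nm. Ten concentrations tested in triplicate; apparent IC50 from four-parameter curve fit.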

In test [2] the target is Human recombinant Acetyl-CoA Carboxylase 2 (ACC2) (Homo sapiens, UniProt O00763). Nature of the test: Assay X: ACC2 inhibition, inorganic phosphate (malachite green). The format is biochemical. To be noted: Assay X: 37° C., 1.5 h, 5 min pre-incubation. In outline:
as §1

Human recombinant Acetyl-CoA Carboxylase 2 (ACC2), sequence (O00763 whole entry): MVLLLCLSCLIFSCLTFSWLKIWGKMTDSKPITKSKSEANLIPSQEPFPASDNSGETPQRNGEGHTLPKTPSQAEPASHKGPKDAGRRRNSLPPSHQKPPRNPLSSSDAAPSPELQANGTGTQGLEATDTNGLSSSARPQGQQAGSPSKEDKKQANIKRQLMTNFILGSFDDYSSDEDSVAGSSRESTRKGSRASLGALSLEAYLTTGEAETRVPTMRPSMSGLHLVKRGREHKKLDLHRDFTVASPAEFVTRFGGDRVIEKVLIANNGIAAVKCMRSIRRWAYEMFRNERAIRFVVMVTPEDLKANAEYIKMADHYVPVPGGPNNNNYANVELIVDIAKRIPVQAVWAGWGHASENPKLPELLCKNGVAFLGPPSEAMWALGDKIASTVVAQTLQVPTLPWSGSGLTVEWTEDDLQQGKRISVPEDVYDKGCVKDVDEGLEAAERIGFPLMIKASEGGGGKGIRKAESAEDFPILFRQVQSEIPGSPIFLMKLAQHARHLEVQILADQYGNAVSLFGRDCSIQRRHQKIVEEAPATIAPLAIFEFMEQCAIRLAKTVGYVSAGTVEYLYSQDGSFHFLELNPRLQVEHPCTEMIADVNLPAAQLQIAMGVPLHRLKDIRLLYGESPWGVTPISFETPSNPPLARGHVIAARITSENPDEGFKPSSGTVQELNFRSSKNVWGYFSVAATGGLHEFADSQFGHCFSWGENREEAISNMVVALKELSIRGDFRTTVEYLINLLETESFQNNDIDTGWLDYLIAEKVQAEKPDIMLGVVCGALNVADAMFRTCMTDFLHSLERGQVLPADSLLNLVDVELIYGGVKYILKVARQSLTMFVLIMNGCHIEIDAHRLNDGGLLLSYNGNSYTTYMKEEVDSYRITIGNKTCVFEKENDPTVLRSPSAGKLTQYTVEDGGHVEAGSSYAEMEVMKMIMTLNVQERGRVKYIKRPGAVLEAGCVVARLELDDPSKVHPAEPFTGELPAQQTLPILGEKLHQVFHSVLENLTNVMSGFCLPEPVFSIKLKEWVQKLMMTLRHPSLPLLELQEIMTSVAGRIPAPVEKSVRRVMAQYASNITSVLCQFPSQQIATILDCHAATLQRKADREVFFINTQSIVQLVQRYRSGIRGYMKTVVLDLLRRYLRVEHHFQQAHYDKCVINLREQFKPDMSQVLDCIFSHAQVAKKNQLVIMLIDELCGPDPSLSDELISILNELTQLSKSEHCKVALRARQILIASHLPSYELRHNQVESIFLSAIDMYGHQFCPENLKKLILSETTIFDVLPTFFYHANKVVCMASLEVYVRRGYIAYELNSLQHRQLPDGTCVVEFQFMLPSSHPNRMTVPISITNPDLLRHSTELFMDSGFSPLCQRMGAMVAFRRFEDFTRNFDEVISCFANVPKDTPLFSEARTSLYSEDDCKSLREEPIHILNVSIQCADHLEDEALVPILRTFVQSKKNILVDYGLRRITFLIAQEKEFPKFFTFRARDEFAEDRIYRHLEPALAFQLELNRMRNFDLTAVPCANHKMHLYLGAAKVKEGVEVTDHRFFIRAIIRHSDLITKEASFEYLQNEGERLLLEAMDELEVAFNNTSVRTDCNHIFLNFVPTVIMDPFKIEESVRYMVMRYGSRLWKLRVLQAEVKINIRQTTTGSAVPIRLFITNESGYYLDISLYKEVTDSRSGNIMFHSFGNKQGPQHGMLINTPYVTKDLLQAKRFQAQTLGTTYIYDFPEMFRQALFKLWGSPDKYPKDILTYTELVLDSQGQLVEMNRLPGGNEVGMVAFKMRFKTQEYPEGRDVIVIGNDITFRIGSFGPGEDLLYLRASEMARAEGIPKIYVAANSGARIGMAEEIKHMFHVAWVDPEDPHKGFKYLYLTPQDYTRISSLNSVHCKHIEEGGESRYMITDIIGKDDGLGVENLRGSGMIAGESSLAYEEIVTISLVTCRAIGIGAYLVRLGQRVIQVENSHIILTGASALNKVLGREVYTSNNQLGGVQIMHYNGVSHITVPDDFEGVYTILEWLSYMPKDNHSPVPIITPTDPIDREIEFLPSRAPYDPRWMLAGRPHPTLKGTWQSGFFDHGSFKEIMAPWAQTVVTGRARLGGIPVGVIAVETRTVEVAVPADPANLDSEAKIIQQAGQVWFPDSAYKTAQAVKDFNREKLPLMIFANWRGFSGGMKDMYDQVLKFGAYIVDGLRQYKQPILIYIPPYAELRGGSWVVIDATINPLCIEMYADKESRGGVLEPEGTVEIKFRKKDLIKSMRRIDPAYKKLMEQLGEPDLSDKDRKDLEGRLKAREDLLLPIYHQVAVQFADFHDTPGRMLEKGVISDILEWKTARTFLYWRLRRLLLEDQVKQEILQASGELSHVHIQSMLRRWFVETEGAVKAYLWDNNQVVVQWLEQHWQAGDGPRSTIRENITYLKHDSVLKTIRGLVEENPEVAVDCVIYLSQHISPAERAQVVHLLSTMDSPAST

Consider `CC(C)(C)OC(=O)NC[C@H]1CC[C@H](CNC(=O)c2cc(-c3ccc(OC4CCOCC4)nc3)nc3ccccc23)CC1` [Example 175, tert-Butyl[(trans-4-{[({2-[6-(tetrahydro-2H-pyran-4-yloxy)-pyridin-3-yl]-quinolin-4-yl}-carbonyl)amino]-methyl}cyclohexyl)methyl]carbamate], for which the IC50 in test [1] is 7300 nM; in test [2], 500 nM.
Taken in the same sequence, the figures for `CC(C)(C)OC(=O)NC[C@H]1CC[C@H](CNC(=O)c2cc(-c3ccc(OCN4CCCC4=O)nc3)nc3ccccc23)CC1` [Example 177, tert-Butyl{[trans-4-({[(2-{6-[(2-oxopyrrolidin-1-yl)methoxy]pyridin-3-yl}quinolin-4-yl)carbonyl]amino}-methyl)cyclohexyl]-methyl}carbamate] were 4310 nM and 1710 nM.
For `CC(C)(C)OC(=O)NC[C@H]1CC[C@H](CNC(=O)c2cc(-c3ccc(OCC(N)=O)nc3)nc3ccccc23)CC1` [Example 178, tert-Butyl[(trans-4-{[({2-[6-(2-amino-2-oxoethoxy)pyridin-3-yl]quinolin-4-yl}carbonyl)amino]-methyl}cyclohexyl)methyl]carbamate] the same measures were 1550 nM and 330 nM.
On to `CN1CCN(CCOc2ccc(-c3cc(C(=O)NC[C@H]4CC[C@H](CNC(=O)OC(C)(C)C)CC4)c4ccccc4n3)cn2)CC1` [Example 179, tert-Butyl{[trans-4-({[(2-{6-[2-(4-methylpiperazin-1-yl)ethoxy]pyridin-3-yl}quinolin-4-yl)carbonyl]amino}-methyl)cyclohexyl]-methyl}carbamate], for which the IC50 in test [1] is 1800 nM; in test [2] it was 550 nM.
`CC(C)(C)OC(=O)NC[C@H]1CC[C@H](CNC(=O)c2cc(N3CCNCC3)nc3ccccc23)CC1` [Example 190, tert-Butyl {[trans-4-({[(2-piperazin-1-ylquinolin-4-yl)carbonyl]amino}methyl)-cyclohexyl]methyl}carbamate]: the values for the IC50 in test [1] and in test [2] were 13600 nM and 1300 nM, respectively.
For `CC(=O)NCC1CCN(c2cc(C(=O)NC[C@H]3CC[C@H](CNC(=O)OC(C)(C)C)CC3)c3ccccc3n2)CC1` [Example 191, tert-Butyl [(trans-4-{[({2-[4-(acetamidomethyl)piperidin-1-yl]quinolin-4-yl}carbonyl)amino]methyl}cyclohexyl)methyl]carbamate] the same measures were 2960 nM and 970 nM.
Taken in the same sequence, the figures for `CC(=O)NCCC1CCN(c2cc(C(=O)NC[C@H]3CC[C@H](CNC(=O)OC(C)(C)C)CC3)c3ccccc3n2)CC1` [Example 192, tert-Butyl [(trans-4-{[({2-[4-(2-acetamidoethyl)piperidin-1-yl]quinolin-4-yl}carbonyl)amino]methyl}cyclohexyl)methyl]carbamate] were 1960 nM and 560 nM.
Taken in the same sequence, the figures for `CN(C)CCC1CCN(c2cc(C(=O)NC[C@H]3CC[C@H](CNC(=O)OC(C)(C)C)CC3)c3ccccc3n2)CC1` [Example 193, tert-butyl {[trans-4-({[(2-{4-[2-(dimethylamino)ethyl]piperidin-1-yl}quinolin-4-yl)carbonyl]amino}methyl)cyclohexyl]methyl}carbamate] were 440 nM and 100 nM.
Consider `CC(C)(C)OC(=O)NC[C@H]1CC[C@H](CNC(=O)c2cc(N3CCC(CCN)CC3)nc3ccccc23)CC1` [Example 194, tert-Butyl [(trans-4-{[({2-[4-(2-aminoethyl)piperidin-1-yl]quinolin-4-yl}carbonyl)amino]methyl}cyclohexyl)methyl]carbamate], for which the results for the IC50 in test [1] and in test [2] were 510 nM and 50 nM, respectively.
Taken in the same sequence, the figures for `CN(C)CCOc1ccc(-c2cc(C(=O)NC[C@H]3CC[C@H](CNC(=O)OC4CCOCC4)CC3)c3ccccc3n2)cn1` [Example 195, Tetrahydro-2H-pyran-4-yl {[trans-4-({[(2-{6-[2-(dimethylamino)ethoxy]pyridin-3-yl}quinolin-4-yl)carbonyl]amino}methyl)cyclohexyl]methyl}carbamate] were 4900 nM and 820 nM.
For `CN(C)CCOc1ccc(-c2cc(C(=O)NC[C@H]3CC[C@H](CNC(=O)O[C@H]4CCOC4)CC3)c3ccccc3n2)cn1` [Example 196, (3S)-Tetrahydrofuran-3-yl {[trans-4-({[(2-{6-[2-(dimethylamino)ethoxy]pyridin-3-yl}quinolin-4-yl)carbonyl]amino}methyl)cyclohexyl]methyl}carbamate] the same measures were 3480 nM and 920 nM.
Taken in the same sequence, the figures for `O=C(NC[C@H]1CC[C@H](CNC(=O)c2cc(-c3ccc(NCCO)nc3)nc3ccccc23)CC1)OC1CCOCC1` [Example 197, Tetrahydro-2H-pyran-4-yl {[trans-4-({[(2-{6-[(2-hydroxyethyl)amino]pyridin-3-yl}quinolin-4-yl)carbonyl]amino}methyl)cyclohexyl]methyl}carbamate] were 9640 nM and 1980 nM.
As to `CN(C)CCNc1ccc(-c2cc(C(=O)NC[C@H]3CC[C@H](CNC(=O)OC4CCOCC4)CC3)c3ccccc3n2)cn1` [Example 198, Tetrahydro-2H-pyran-4-yl({trans-4-[({[2-(6-{[2-(dimethylamino)-ethyl]amino}pyridin-3-yl)quinolin-4-yl]carbonyl}amino)-methyl]cyclohexyl}-methyl)carbamate], the values for the IC50 in test [1] and in test [2] were 1420 nM and 380 nM, respectively.
For `CN(C)CCNc1ccc(-c2cc(C(=O)NC[C@H]3CC[C@H](CNC(=O)O[C@H]4CCOC4)CC3)c3ccccc3n2)cn1` [Example 199, (3S)-Tetrahydrofuran-3-yl({trans-4-[({[2-(6-{[2-(dimethylamino)ethyl]-amino}pyridin-3-yl)quinolin-4-yl]carbonyl}amino)-methyl]cyclohexyl}-methyl)carbamate] the same measures were 1600 nM and 370 nM.
Taken in the same sequence, the figures for `O=C(NC[C@H]1CC[C@H](CNC(=O)c2cc(-c3ccc(NCCO)nc3)nc3ccccc23)CC1)O[C@H]1CCOC1` [Example 200, (3S)-Tetrahydrofuran-3-yl{[trans-4-({[(2-{6-[(2-hydroxyethyl)amino]pyridin-3-yl}quinolin-4-yl)carbonyl]amino}methyl)cyclohexyl]methyl}-carbamate] were 4500 nM and 1200 nM.
Taken in the same sequence, the figures for `O=C(NC[C@H]1CC[C@H](CNC(=O)c2cc(-c3ccc(N4CC[C@@H](O)C4)nc3)nc3ccccc23)CC1)O[C@H]1CCOC1` [Example 201, (3S)-Tetrahydrofuran-3-yl {[trans-4-({[(2-{6-[(3R)-3-hydroxypyrrolidin-1-yl]pyridin-3-yl}quinolin-4-yl)carbonyl]amino}methyl)cyclohexyl]methyl}-carbamate] were 2170 nM and 850 nM.
Regarding `O=C(NC[C@H]1CC[C@H](CNC(=O)c2cc(-c3ccc(N4CC[C@@H](O)C4)nc3)nc3ccccc23)CC1)OC1CCOCC1` [Example 202, Tetrahydro-2H-pyran-4-yl {[trans-4-({[(2-{6-[(3R)-3-hydroxypyrrolidin-1-yl]pyridin-3-yl}quinolin-4-yl)carbonyl]amino}methyl)cyclohexyl]methyl}-carbamate], the IC50 turned out to be 1100 nM in test [1] and 510 nM in test [2].
For `CN(C)CCOc1ccc(-c2cc(C(=O)NC[C@H]3CC[C@H](CNC(=O)OC(C)(C)C)CC3)c3ccccc3n2)cc1` [Example 203, tert-Butyl {[trans-4-({[(2-{4-[2-(dimethylamino)ethoxy]phenyl}quinolin-4-yl)carbonyl]amino}methyl)cyclohexyl]methyl}carbamate] the same measures were 630 nM and 150 nM.
Regarding `CN(C)CC(O)CC1CCN(c2cc(C(=O)NC[C@H]3CC[C@H](CNC(=O)OC(C)(C)C)CC3)c3ccccc3n2)CC1` (stereo partly drawn) [Example 205, tert-Butyl {[trans-4-({[(2-{4-[3-(dimethylamino)-2-hydroxypropyl]piperidin-1-yl}quinolin-4-yl)carbonyl]amino}methyl)cyclohexyl]methyl}carbamate], the results for the IC50 in test [1] and in test [2] were 1310 nM and 140 nM, respectively.
Taken in the same sequence, the figures for `CN(C)C(=O)COC1CCN(c2cc(C(=O)NC[C@H]3CC[C@H](CNC(=O)OC(C)(C)C)CC3)c3ccccc3n2)CC1` [Example 210, tert-Butyl {[trans-4-({[(2-{4-[2-(dimethylamino)-2-oxoethoxy]piperidin-1-yl}quinolin-4-yl)carbonyl]amino}methyl)cyclohexyl]methyl}carbamate] were 13100 nM and 2040 nM.
For `CN(C)CCOC1CCN(c2cc(C(=O)NC[C@H]3CC[C@H](CNC(=O)OC(C)(C)C)CC3)c3ccccc3n2)CC1` [Example 211, tert-Butyl {[trans-4-({[(2-{4-[2-(dimethylamino)ethoxy]piperidin-1-yl}quinolin-4-yl)carbonyl]amino}methyl)cyclohexyl]methyl}carbamate] the same measures were 2220 nM and 270 nM.
Consider `CN(C)CCC1CCN(c2cc(C(=O)NC[C@H]3CC[C@H](CNC(=O)OCC(C)(C)C)CC3)c3ccccc3n2)CC1` [Example 212, 2,2-Dimethylpropyl {[trans-4-({[(2-{4-[2-(dimethylamino)ethyl]piperidin-1-yl}quinolin-4-yl)carbonyl]amino}methyl)cyclohexyl]methyl}carbamate], for which the IC50 in test [1] is 1190 nM; in test [2], 120 nM.
For `CC(C)(C)OC(=O)NC[C@H]1CC[C@H](CNC(=O)c2cc(N3CCC(CN4CCOCC4)CC3)nc3ccccc23)CC1` [Example 213, tert-Butyl[(trans-4-{[({2-[4-(morpholin-4-ylmethyl)piperidin-1-yl]quinolin-4-yl}carbonyl)amino]methyl}cyclohexyl)methyl]-carbamate] the same measures were 3280 nM and 620 nM.
